# From patent US20030203372A1, “Analysis method” (priority 2000, published 2003)
# How the values were obtained:
# [1] = Hypoxia response of the referenced genes/sequences, summary in cross-reference Table 26; format: cell-based, human; conditions: direction of expression change of the gene/sequence in response to hypoxia
# [2] = system: primary human cell cultures (11 cell types); experiment: Custom gene array, 11 human cell types in normoxia or hypoxia for 6 hr and 18 hr; format: cell-based
# Protocol: Equivalent cultures of non-immortalized, non-transformed primary human cells of 10 distinct types, were cultured in either normoxia or were exposed to hypoxia for 6 hr and 18 hr, and gene expression changes were determined. […] Moreover, unlike the vast majority of information in the public domain relating to genes responsive to hypoxia, all of these cells were human and were cultured without any modifications following isolation from the human donors.
# A non-primary cell type (#9) was used to represent neurons, since primary human neurons are difficult to source. Therefore a total of 11 cell types are compared. It should be noted that RNA from hepatocytes at the […] timepoint of hypoxia was not available for this work.
# Each RNA sample was hybridised to duplicate or triplicate arrays, to ensure reproducible data, and was analysed using GeneSpring software. Data from replicate arrays were merged during analysis to generate mean values. Data normalisation was achieved per-array using the aforementioned list of control genes, such that differences in RNA labelling or hybridization due to experimental variation were corrected by referencing each gene to the mean value of the reference genes on the same array. Also, for each gene, expression values were obtained which represent the value in each experimental condition (e.g. macrophages 6 hr hypoxia) as compared to the median of value of that gene throughout the full range of experimental conditions (i.e. from all cell types). […] This is common in microarray data analysis.
substance,measurement,setting,value
Interleukin 8,Hypoxia response,[1],Increase
Monocyte chemotactic protein 1,Hypoxia response,[1],Repression
Osteopontin,Hypoxia response,[1],Increase
Vascular endothelial growth factor,Hypoxia response,[1],Increase
p1G10,mRNA expression level,"[2]; cell type #1, HY (hypoxia) 6 hr",0.61
same,mRNA expression level,"[2]; cell type #1, HY (hypoxia) 18 hr",1.52
same,mRNA expression level,"[2]; cell type #1, NO (normoxia)",1.01
same,mRNA expression level,"[2]; cell type #2, HY (hypoxia) 6 hr",1.76
same,mRNA expression level,"[2]; cell type #2, HY (hypoxia) 18 hr",1.65
same,mRNA expression level,"[2]; cell type #2, NO (normoxia)",1.69
same,mRNA expression level,"[2]; cell type #3, HY (hypoxia) 6 hr",3.58
same,mRNA expression level,"[2]; cell type #3, HY (hypoxia) 18 hr",2.49
same,mRNA expression level,"[2]; cell type #3, NO (normoxia)",2.01
same,mRNA expression level,"[2]; cell type #4, HY (hypoxia) 6 hr",1.13
same,mRNA expression level,"[2]; cell type #4, HY (hypoxia) 18 hr",0.99
same,mRNA expression level,"[2]; cell type #4, NO (normoxia)",1.32
same,mRNA expression level,"[2]; cell type #5, HY (hypoxia) 6 hr",0.65
same,mRNA expression level,"[2]; cell type #5, NO (normoxia)",0.44
same,mRNA expression level,"[2]; cell type #6, HY (hypoxia) 6 hr",0.62
same,mRNA expression level,"[2]; cell type #6, NO (normoxia)",0.44
